In patent US7179779B1, “Cationic bleach activator with enhanced hydrolytic stability” (North Carolina State University, priority 2006, dated 2007):
Entries after “also recorded” stand apart in the source; their conditions may differ. Counter-ions that a name gives are not always drawn.

Columns and labels:
[1] = Hydrolysis kinetics of bleach activator storage solutions by HPLC analysis; format: physicochemical; settings: 10% solution, pH 5, room temperature
Description: Because the concentration of hydroxide ion, OH^−, in the cationic bleach activator solution is almost constant by using a buffer (pH 5), the decrease in the concentration of bleach activator can be expressed as equation 1:
[formula] wherein, [C] is the concentration of bleach activator at time t and k is the pseudo first order rate constant of hydrolysis. See M. B. Smith and J. March, March's Advanced Organic Chemistry: Reactions, Mechanisms, and Structure, 5th ed. (New York: Wiley, 2001) 291.
Equation 2 then can be derived from equation 1:
[formula] wherein, C0 and Ct are the concentration of bleach activator at initial time and time t, respectively.
(§1) Aqueous solutions (10% w/w) of cationic bleach activators 3a–3e were prepared using pH 5 buffer solution. A buffer solution of pH 5 was made using sodium acetate (0.1 M)/acetic acid. Each solution was stored in an amber glass bottle at room temperature.
The HPLC (Waters Breeze HPLC system, Waters Corporation, Milford, Mass., United States of America) with a C18 reverse-phase column (Waters Symmetry C18, 5 μm) was used to analyze the hydrolysis behaviors of the cationic bleach activators 3a–3e during storage. On the selected day, a 0.5 mL aliquot was withdrawn from each storage solution of 3a–3e and diluted with 24.5 mL of water. A 10-μL sample of the solution was injected into the HPLC. For the mobile phase, the gradient program using water with 0.005M heptanesulphonic acid as a solvent A and acetonitrile as a solvent B was used (Table 2). The flow rate was 1 mL/min.

[2] = Available oxygen (AvO) of bleach activator storage solutions by modified iodometric titration; format: physicochemical; settings: 10% w/w aqueous solution, pH 5 buffer, room temperature storage
Description: Active or available oxygen (AvO) is a useful parameter for assessing the oxidizing power of hydrogen peroxide or peracids from bleach activators. See American Standard Test Method D 2180–89 (West Conshohocken: ASTM International, 2003); and J. K. Grime, A. D. Clauss and K. A. Leslie, Tenside Surf. Det., 29 (1992) 23. A modified iodometric titration method was used to measure the AvO of the presently disclosed bleach activators. See J. J. Lee, S. Lim, P. Hauser and D. Hinks, Color. Technol., 121 (2005) 37.
as §1
AvO of a bleach activator was measured using a previously described procedure. See J. J. Lee, S. Lim, P. Hauser and D. Hinks, Color. Technol., 121 (2005) 37, the disclosure of which is incorporated herein by reference in its entirety.
On the selected day, the pH value of each storage solution was recorded and a 2 mL aliquot was withdrawn and added to a mixture of deionized water, stabilizer (1 g/L), Na2CO3 (14 g/L) and H2O2 (50% w/w, 0.5 g/L) to make a total volume of 200 mL. Crushed ice (180 g) was added to the sample solution while stirring. Acetic acid (50 mL) and potassium iodide solution (10 mL, 10% w/v) were then added separately. Using 0.025N sodium thiosulfate solution, the sample solution was titrated until it turned colorless. AvO (ppm) of a bleach activator was calculated using Equation 3.
[formula] wherein, Vtotal and VH2O2 are the volume (mL) of Na2S2O3 solution required for the titration of sample and blank respectively.

[3] = Bleaching of cotton fabric with bleach activators, CIE whiteness index measurement; settings: stored 10% w/w aqueous solutions, pH 5, bleaching at 70° C. for 50 min
Method: On the same day of the AvO measurement, bleaching was carried out with storage solutions of the bleach activators 3a–3e. Two grams of each solution was added to the bleaching solution, which comprised a wetting agent (1 g/L), stabilizer (1 g/L), NaOH (50% w/w, 3 g/L) and H2O2 (50% w/w, 3 g/L). Cotton fabric (10 g) was bleached in a laboratory IR dyeing machine (Ahiba Nuance, Datacolor International, Lawrenceville, N.J., United States of America) at a liquor ratio of 10:1. The temperature was raised to 70° C. at the rate of 4° C./min. After 50 min of bleaching, the bleaching bath was cooled to room temperature. The bleached fabric was rinsed thoroughly in tap water and air-dried.
The CIE Whiteness Index (WI) value was obtained for the bleached fabric using AATCC Test Method 110–1995. See AATCC Technical Manual, vol 75 (Research Triangle Park: American Association of Textile Chemists and colorists, 2000), the disclosure of which is incorporated herein by reference in its entirety.
The whiteness was measured on a UV calibrated Datacolor Spectraflash SF 600X (Datacolor Corporation, Lawrenceville, N.J., United States of America), under illuminant D65 using the 10° standard observer with specular and UV component included. Each sample was folded twice to give an opaque sample with four plies and whiteness was measured four times at different surfaces. The average value of CIE WI was recorded.

[4] = compared with conventional peroxide bleaching; cited from earlier work

| melting point | hydrolytic stability under typical storage conditions [1] | rate of decrease of AvO over storage time [2] | SMILES | pseudo first order rate constant of hydrolysis (ranking) [1] | also measured |
| --- | --- | --- | --- | --- | --- |
| 228 to 230 °C | – | – | CC[N+](CC)(CC)Cc1ccc(C(=O)N2CCCC2=O)cc1 (as salt: chloride) [Compound 3a, N-[4-(triethylammoniomethyl)benzoyl] butyrolactam chloride] | – | – |
| 194 to 196 °C | – | – | CC[N+](CC)(CC)Cc1ccc(C(=O)N2CCCCCCC2=O)cc1 (as salt: chloride) [Compound 3d, N-[4-(triethylammoniomethyl)benzoyl] heptalactam chloride] | – | – |
| 183 to 185 °C | – | – | CC[N+](CC)(CC)Cc1ccc(C(=O)N2CCCCCCCC2=O)cc1 (as salt: chloride) [Compound 3e, N-[4-(triethylammoniomethyl)benzoyl] octalactam chloride] | – | – |
| – | more stable than TBCC | – | CC[N+](CC)(CC)Cc1ccc(C(=O)N2CCCC2=O)cc1 [Compound 3a, N-[4-(triethylammoniomethyl)benzoyl] butyrolactam chloride] | smaller than that of TBCC | – |
| 187 to 189 °C | – | decreased the fastest | CC[N+](CC)(CC)Cc1ccc(C(=O)N2CCCCC2=O)cc1.[Cl-] [Compound 3b, N-[4-(triethylammoniomethyl)benzoyl] valerolactam chloride] | greatest | rate constant of hydrolysis, times greater than that of 3c or TBCC [1]: two times greater; change of CIE-WI of cotton fabric bleached with stored activator solutions over storage time [3]: decreased fastest |
| 212 to 214 °C | – | second to that of 3b | CC[N+](CC)(CC)Cc1ccc(C(=O)N2CCCCCC2=O)cc1.[Cl-] [Compound 3c, N-[4-(triethylammoniomethyl)benzoyl] caprolactam chloride] | – | bleaching performance [4]: satisfactory bleaching performance in a shorter time and at lower temperatures than conventional peroxide bleaching |
| – | more stable than TBCC | – | CC[N+](CC)(CC)Cc1ccc(C(=O)N2CCCCCCC2=O)cc1 [Compound 3d, N-[4-(triethylammoniomethyl)benzoyl] heptalactam chloride] | smaller than that of TBCC | – |

| SMILES | melting point | hydrolytic stability under typical storage conditions [1] | rate of decrease of AvO over storage time [2] | pseudo first order rate constant of hydrolysis (ranking) [1] | also measured |
| --- | --- | --- | --- | --- | --- |
| CC[N+](CC)(CC)Cc1ccc(C(=O)N2CCCCCCCC2=O)cc1 [Compound 3e, N-[4-(triethylammoniomethyl)benzoyl] octalactam chloride] | – | more stable than TBCC; also recorded: the most stable compound | decreased the slowest | smaller than that of TBCC | rate constant of hydrolysis, times smaller than that of 3a [1]: about 3 times; rate constant of hydrolysis, times smaller than that of TBCC [1]: ~7 times; change of CIE-WI of cotton fabric bleached with stored activator solutions over storage time [3]: decreased slowest |
